# Test results reported in publication PMC10418759, “New Highly Selective BACE1 Inhibitors and Their Effects on Dendritic Spine Density In Vivo” (International Journal of Molecular Sciences, 2023).
# Assays:
# [1] = tested on: dendritic spines of layer V pyramidal neurons, somatosensory cortex; details: mouse, in vivo; cited from earlier work
# recombinant human BACE1 [2] = molecular target: T1, recombinant human BACE1 (Homo sapiens, UniProt P56817); experiment: BACE1 biochemical enzymatic assay (HTRF, APP-derived Swedish-mutation peptide substrate); details: HTRF, 2 h at 25 °C, APP-derived peptide substrate
# T1 construct: purchased R&D Systems
# Procedure: (§1) BACE1 enzymatic activity was determined in a homogeneous time-resolved fluorescence (HTRF) assay, and BACE2 enzymatic activity was determined in an enzyme-linked immunosorbent assay (ELISA)-based assay using an APP-derived peptide that contains the K670N + M671L (Swedish) double mutation of the APP β secretase cleavage site as a substrate. The recombinant human BACE1 (R&D Systems, MN, USA) was incubated (2 h at 25 °C) with the substrate and the inhibitor (9 or 10 concentrations at 1/5 steps from 10 μM). Fluorescence intensity was measured (excitation wavelength: 320 nm, measuring wavelength: 620 nm and 665 nm) using RUBYstar (BMG LABTECH, Ortenberg, Germany). […] The inhibitory potential of the compounds on the enzymatic activity of BACE1 and BACE2 was determined by performing concentration–response curves.
# recombinant human BACE1 [3] = experiment: as above; details: selectivity for BACE1 over BACE2 from IC50 values
# Procedure: as §1
# [4] = molecular target: T2, recombinant human BACE2 ectodomain (Homo sapiens, UniProt Q9Y5Z0); experiment: BACE2 biochemical enzymatic assay (ELISA-based, APP-derived Swedish-mutation peptide substrate); details: 1 h at 37 °C
# T2 sequence (Q9Y5Z0 63-473 limits assumed): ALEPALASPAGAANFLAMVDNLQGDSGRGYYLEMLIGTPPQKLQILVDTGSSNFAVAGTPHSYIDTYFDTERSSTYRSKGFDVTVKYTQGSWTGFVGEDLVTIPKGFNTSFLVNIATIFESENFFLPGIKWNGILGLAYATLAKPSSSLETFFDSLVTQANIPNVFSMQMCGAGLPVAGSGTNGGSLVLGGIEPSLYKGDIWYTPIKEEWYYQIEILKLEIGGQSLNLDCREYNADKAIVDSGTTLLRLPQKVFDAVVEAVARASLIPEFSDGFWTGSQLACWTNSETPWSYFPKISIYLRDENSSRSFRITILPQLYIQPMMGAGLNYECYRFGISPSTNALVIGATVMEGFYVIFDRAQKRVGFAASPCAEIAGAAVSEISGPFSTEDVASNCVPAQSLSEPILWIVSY
# Procedure: BACE1 enzymatic activity was determined in a homogeneous time-resolved fluorescence (HTRF) assay, and BACE2 enzymatic activity was determined in an enzyme-linked immunosorbent assay (ELISA)-based assay using an APP-derived peptide that contains the K670N + M671L (Swedish) double mutation of the APP β secretase cleavage site as a substrate. The recombinant human BACE1 (R&D Systems, MN, USA) was incubated (2 h at 25 °C) with the substrate and the inhibitor (9 or 10 concentrations at 1/5 steps from 10 μM). Fluorescence intensity was measured (excitation wavelength: 320 nm, measuring wavelength: 620 nm and 665 nm) using RUBYstar (BMG LABTECH, Ortenberg, Germany). The recombinant human BACE2 ectodomain was incubated (1 h at 37 °C) with the substrate and the inhibitor (10 concentrations at 1/4 steps from 25 μM). The count of chemi-luminescence in each well was measured using ARVOTM MX 1420 Multilabel Counter (PerkinElmer, Shelton, CT, USA). The inhibitory potential of the compounds on the enzymatic activity of BACE1 and BACE2 was determined by performing concentration–response curves.
# brain Aβ40 = experiment: Brain Aβ levels in mice fed inhibitor pellets (Aβ40 ELISA, soluble brain fraction); type: in vivo, mouse; details: C57BL/6 mice, food pellets with inhibitor for one week, level reduced to % of vehicle
# Text: C57BL/6 mice (CLEA Japan Inc., Tokyo, Japan) were fed with food pellets containing 0.02% elenbecestat, 0.0125% Shionogi compound 1, and 0.025% Shionogi compound 2 for one week (performed at AAALAC compatible facilities). Mouse cerebral hemispheres were removed and frozen immediately with liquid nitrogen. The frozen cerebral hemispheres were transferred to a homogenized tube containing ceramic beads in an 8-fold volume of the weight of an extraction buffer (containing 0.4% DEA (diethylamine), 50 mmol/L NaCl, completed with protease inhibitor (Roche, Basel, Switzerland)) and incubated on ice for 20 min. Thereafter, the hemispheres were homogenized using MP BIO FastPrep-24 (MP-Biomedicals, Irvine, CA, USA) with Lysing matrix D 1.4 mm ceramic beads (20 s at 6 m/s). After spinning for 1 min, the supernatant was transferred to a centrifugation tube and centrifuged at 221,000× g, 4 °C, for 50 min. After centrifugation, the supernatant was used for measuring the brain Aβ40. The brain Aβ40 was measured using Human/Rat Amyloid beta 40 ELISA Kit (FUJIFILM Wako Pure Chemical Corporation, Osaka, Japan). The assay procedure was conducted according to instructions.
# [5] = tested on: soluble Seizure protein 6 (sSez6); experiment: Soluble Sez6 levels in the mouse brain (Western blot); type: in vivo; details: C57BL/6 mice, food pellets with inhibitor for one week, soluble brain fraction; level reduced to % of vehicle
# Text: C57BL/6 mice (CLEA Japan Inc., Tokyo, Japan) were fed with food pellets containing 0.02% elenbecestat, 0.0125% Shionogi compound 1, and 0.025% Shionogi compound 2 for one week (performed at AAALAC compatible facilities). Mouse cerebral hemispheres were removed and frozen immediately with liquid nitrogen. The frozen cerebral hemispheres were transferred to a homogenized tube containing ceramic beads in an 8-fold volume of the weight of an extraction buffer (containing 0.4% DEA (diethylamine), 50 mmol/L NaCl, completed with protease inhibitor (Roche, Basel, Switzerland)) and incubated on ice for 20 min. […] The brain Aβ40 was measured using Human/Rat Amyloid beta 40 ELISA Kit (FUJIFILM Wako Pure Chemical Corporation, Osaka, Japan). […]
# The brain samples were heated at 95 °C in 1% SDS sample buffer with 100 mM DTT for 5 min, separated by SDS-PAGE on 4–20% precast polyacrylamide gels (Biorad, Feldkirchen, Germany), and transferred to PVDF membranes (Biorad, Feldkirchen, Germany). […] After final washes with PBST, the membranes were incubated with ECL prime for a few minutes, and signal was detected with LAS-3000 (FUJIFILM Wako Pure Chemical Corporation, Osaka, Japan). Densitometry quantification of Western blot signal was conducted using Multi Gauge V3.1 software (FUJIFILM Wako Pure Chemical Corporation, Osaka, Japan).
# [6] = tested on: dendritic spines of layer V pyramidal neurons, somatosensory cortex; experiment: Longitudinal in vivo two-photon dendritic spine imaging in GFP-M mice; set-up: species or system mouse; details: inhibitor food pellets for 21 days, compared to vehicle
# cognition = details: in vivo; cited from earlier work
# T1 sequence (P56817 46-501): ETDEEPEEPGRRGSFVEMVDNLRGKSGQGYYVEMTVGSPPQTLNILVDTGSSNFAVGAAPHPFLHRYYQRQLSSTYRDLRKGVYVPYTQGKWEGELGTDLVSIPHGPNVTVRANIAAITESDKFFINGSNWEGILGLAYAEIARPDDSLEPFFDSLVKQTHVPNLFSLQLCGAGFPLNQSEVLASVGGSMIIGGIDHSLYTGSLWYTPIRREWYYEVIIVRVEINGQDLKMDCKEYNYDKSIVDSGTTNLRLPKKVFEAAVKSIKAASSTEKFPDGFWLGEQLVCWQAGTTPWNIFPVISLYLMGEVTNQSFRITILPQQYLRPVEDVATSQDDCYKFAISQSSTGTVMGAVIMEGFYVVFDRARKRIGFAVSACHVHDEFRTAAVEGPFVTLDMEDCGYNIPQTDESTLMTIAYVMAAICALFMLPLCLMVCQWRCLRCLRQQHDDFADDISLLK
structure (smiles),measurement,setting,value
"CN1C(=N)N[C@](C)(c2cc(NC(=O)c3ccc(F)cn3)ccc2F)CS1(=O)=O [verubecesat, verubecestat]",Dendritic spine plasticity in the cerebral cortex,[1],significant decrease in dendritic spine plasticity
"C[C@H]1OC[C@]2(c3cc(NC(=O)c4cnc(C(F)F)cn4)ccc3F)N=C(N)SC[C@H]12 [Elenbecestat, elenbecestat]",IC50,recombinant human BACE1 [2],3.9 nM
same,BACE1/BACE2 (fold),recombinant human BACE1 [3],12 fold
same,IC50,[4],46 nM
same,Brain Aβ level compared to vehicle,brain Aβ40,46%
same,Brain sSez6 level compared to vehicle,[5],27%
same,Dendritic spine density,[6],do not alter dendritic spine density
same,Cognitive worsening in the clinic,cognition,did not show cognitive worsening
